# Experimental data taken from ChEMBL document CHEMBL1201862, “PubChem BioAssay data set” (2004).
#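 These data come from cells grown in 96-well plates and exposed to compound for 48 hours at five concentrations. Here, GI50 denotes the concentration required for 50% inhibition of growth.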 The source made the active and inactive calls. Rule as the data show it: active = GI50 up to about 1.1 µM and inactive = higher.
# Tests used:
# Experiment in all cases: DTP human tumour cell line panel, 48 h
# [1] = system: HOP-62
# [2] = system: UACC-257
# [3] = system: SF-539
# [4] = system: RPMI-8226
# [5] = system: SK-MEL-28
# [6] = system: SN12C
# [7] = system: SW-620
# [8] = system: HOP-92
# [9] = system: SF-295
# [10] = system: HT-29
# [11] = system: 786-0
# [12] = system: SK-MEL-2
# [13] = system: ACHN
# [14] = system: SK-MEL-5
# [15] = system: SR
# [16] = system: NCI-H23
# [17] = system: DU-145
# [18] = system: MDA-MB-435
# [19] = system: HCT-15
SMILES,GI50 [1],GI50 [2],GI50 [3],GI50 [4],GI50 [5],GI50 [6],GI50 [7],GI50 [8],GI50 [9],GI50 [10],GI50 [11],GI50 [12],GI50 [13],GI50 [14],GI50 [15],GI50 [16],GI50 [17],GI50 [18],GI50 [19] [µM]
CCCCCCCCCCCCC(=O)CCCCC(=O)O,18.3 µM (inactive),38 µM (inactive),17.5 µM (inactive),16.7 µM (inactive),20.7 µM (inactive),24 µM (inactive),30.3 µM (inactive),18.6 µM (inactive),23.4 µM (inactive),15.8 µM (inactive),27.2 µM (inactive),20.7 µM (inactive),26.5 µM (inactive),18.2 µM (inactive),19.5 µM (inactive),35.2 µM (inactive),,,
Cc1cc(O)c2c(c1O)C(=O)C1=C(C2=O)C(=O)C2C(O)C1C1C(O)CC(O)=C3C(=O)c4c(O)cc(C)c(O)c4C(=O)C321 (stereo not drawn),2.48 µM (inactive),0.789 µM (active),1.94 µM (inactive),0.164 µM (active),1.55 µM (inactive),2.12 µM (inactive),1.45 µM (inactive),,0.386 µM (active),0.555 µM (active),1.71 µM (inactive),1.73 µM (inactive),1.35 µM (inactive),1.65 µM (inactive),2.36 µM (inactive),2.73 µM (inactive),1.32 µM (inactive),1.36 µM (inactive),2.04
O=C(NC(Cc1ccccc1)C(=O)CCl)OCc1ccccc1 (stereo not drawn),15.3 µM (inactive),13 µM (inactive),4.76 µM (inactive),4.06 µM (inactive),12.1 µM (inactive),4.91 µM (inactive),4.26 µM (inactive),13 µM (inactive),14.1 µM (inactive),16.6 µM (inactive),3.83 µM (inactive),10.3 µM (inactive),10.1 µM (inactive),13.4 µM (inactive),6.24 µM (inactive),9.2 µM (inactive),,,5
OC(Cn1cncn1)(Cn1cncn1)c1ccc(Cl)cc1Cl,> 100 µM (inactive),> 100 µM (inactive),> 100 µM (inactive),> 100 µM (inactive),> 100 µM (inactive),> 100 µM (inactive),> 100 µM (inactive),> 100 µM (inactive),> 100 µM (inactive),> 100 µM (inactive),> 100 µM (inactive),> 100 µM (inactive),> 100 µM (inactive),> 100 µM (inactive),> 100 µM (inactive),> 100 µM (inactive),,,> 100
